Laboratory results published in PubChem BioAssay (NCI).
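These data come from cells grown in 96-well plates and exposed to compound for 48 hours at five concentrations. The concentration for 50% growth inhibition is given as GI50. TGI: total growth inhibition.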

Tests used:
Experiment in all cases: NCI anticancer screen, dose series, 48 h
[1] = test system: SN12C renal
[2] = test system: HL-60(TB) leukemia
[3] = test system: OVCAR-4 ovarian
[4] = test system: NCI-H460 lung
[5] = test system: HT29 colon
[6] = test system: SW-620 colon
[7] = test system: IGROV1 ovarian
[8] = test system: SK-MEL-2 melanoma
[9] = test system: HOP-62 NSCLC

SMILES | GI50 [1] [µM] | TGI [1] [µM] | GI50 [2] [µM] | TGI [2] [µM] | GI50 [3] [µM] | TGI [3] [µM] | GI50 [4] [µM] | TGI [4] [µM] | GI50 [5] [µM] | TGI [5] [µM] | GI50 [6] [µM] | TGI [6] [µM] | GI50 [7] [µM] | TGI [7] [µM] | GI50 [8] [µM] | TGI [8] [µM] | GI50 [9] [µM] | TGI [9] [µM]
O=C(O)c1cn(C2CC2)c2cc(N3CCN(C(=O)Nc4nc(-c5ccccc5)cs4)CC3)c(F)cc2c1=O | 0.774 | > 100 | 1.62 | 4.41 | 2.93 | > 100 | 0.445 | > 100 | 0.636 | 4.67 | 3.2 | > 100 | 1.2 | > 100 | 1.85 | 6.42 | 2.67 | 82.4
O=C(O)C1CCCCC1c1c2ccc(=O)c(O)c-2oc2c(O)c(O)ccc12 (configuration not stated) | – | 39.3 | – | 65.2 | – | 64 | – | > 100 | – | > 100 | – | 47.7 | – | > 100 | – | > 100 | – | 94.4
COc1ccc2c(c1)CC[C@@H]1[C@@H]2CC[C@]2(C)[C@@H](NC(=O)/C=C/c3ccc(O)c(O)c3)CC[C@@H]12 | 2.61 | 9.3 | – | – | 11.9 | 74.7 | 2.7 | 9.93 | 4.74 | > 100 | 5.55 | 25 | 1.98 | 12 | 2.77 | 11.7 | 3.03 | 11.1
Cc1ccc(-c2c3c(nn2-c2ccc(S(N)(=O)=O)cc2)-c2ccccc2C3)cc1 | 16.9 | 36.9 | – | – | 15.4 | 32.8 | 19.1 | 43.7 | 24.2 | 95.8 | 4.4 | 17 | 3.27 | 16 | 12.2 | 26.6 | 20.6 | 36.1
COc1ccc(C(c2ccc(OCCN(C)C)cc2)c2cc3ccccc3c3ccccc23)cc1 (configuration not stated) | 1.74 | 3.25 | 1.89 | 3.75 | 1.78 | 3.39 | 1.79 | 3.29 | 1.6 | 3.1 | 1.69 | 3.31 | 1.68 | 3.3 | 1.54 | 2.97 | 1.54 | 3.07
CCCCCCNC(=O)Oc1ccc(/C(=C(/C)Cc2ccc(OC)cc2)c2ccc(OCCCN(C)C)cc2)cc1 | 14.7 | 28.3 | 10.5 | 24.9 | 13.1 | 26.7 | 14.1 | 28.2 | 4.4 | 15.2 | 16.4 | 31.2 | 16.3 | 32.7 | 18.5 | 34 | 18.4 | 34.2
CN(Cc1cccc(F)c1)c1ccc(CO)c(Cl)c1 | 22.3 | > 100 | 22 | > 77.2 | 1.61 | 17 | 1.28 | 13.5 | 7.02 | 59.7 | 5.13 | > 100 | 0.361 | 3.05 | 8.39 | 33.7 | 4.84 | 47.8
CS(=O)(=O)NNS(=O)(=O)c1ccccc1 | – | > 100 | – | > 100 | – | > 100 | – | > 100 | – | > 100 | – | > 100 | – | > 100 | – | > 100 | – | > 100
O=C(CN1CCN(c2cc3c(cc2F)c(=O)c(C(=O)O)cn3C2CC2)CC1)Nc1nc(-c2ccc(Cl)cc2)cs1 | 3.69 | > 100 | 2.71 | 6.29 | 6.64 | 98.8 | 3.03 | 12.7 | 3.43 | 29.4 | 3.48 | 16.7 | 7.91 | > 100 | 3.12 | 21 | 4.16 | > 100
O=[N+]([O-])c1ccc(Oc2nc(Nc3ccc(O[C@H]4CO[C@H]5[C@@H]4OC[C@@H]5O)c(Cl)c3)ncc2F)c(Cl)c1 | 1.34 | 6.78 | 1.53 | 4.11 | 1.19 | 5.73 | 0.853 | 2.98 | 2.43 | 11.7 | 1.38 | 12.6 | 0.493 | 2.77 | 0.483 | 2.04 | 1.63 | 4.65
CC(=O)c1c(CN(C)c2ccccc2)n([O-])c2ccccc2[n+]1=O | 24.9 | 87.4 | – | – | 29 | > 100 | 33.6 | > 100 | 20.4 | 49.2 | 21 | > 100 | 45.4 | > 100 | > 100 | > 100 | 30.7 | > 100
CCN1C(=O)CCCc2c1ccc(Nc1ncc(Cl)c(NC3[C@@H](C(N)=O)[C@@H]4C=C[C@H]3C4)n1)c2OC (some centres not stated) | 2.53 | 57.8 | 0.667 | 5.46 | 1.94 | > 41.3 | 0.661 | 13.4 | 0.791 | 9.06 | 0.564 | 3.48 | 1.46 | 3.96 | 1.44 | 3.79 | 2.1 | 13.7
Cn1nc(-c2ccc(Cl)cc2)nc2c(=O)n(C)c(=O)nc1-2 | 0.706 | 1.45 | 1.11 | 3.69 | 1.2 | 3.3 | 1.21 | 4.94 | 1.11 | 11.3 | 1.4 | 6.46 | 0.842 | 3.67 | 1.5 | 9.29 | 0.886 | 1.75
COC(=O)C(=CNC(N)=O)C(=O)OC | – | > 100 | – | – | – | – | – | > 100 | – | > 100 | – | > 100 | – | > 100 | – | > 100 | – | > 100
